We go through eight compounds from patent publication US4256760A, “Methods of treating mammals suffering from inflammation and pain” (Laboratorios Bago S.A., priority 1979, dated 1981).

The conditions of data set [1]: prior art, cited from earlier work; for anti-inflammatory effect (known): administered to mammals.
Data set [2] is described as follows: Analgesic activity, Randall-Selitto's test. Particulars: oral, 30 min before carrageenin; control (water) = 0; mg/kg: ASA 100, its ester 173, XAA 50, its ester 77, TAA 50, its ester 73.5. The data set is classed as in vivo, male mice of Rockland strain. Here is the method:
Randall-Selitto's method: Ten male mice of Rockland strain weighing 25 g were used for each compound tested. 0.1 ml of 1% carrageenin saline suspension was injected into the subplantar region of the right foot. The test compounds were orally administered 30 minutes before the injection. At hourly intervals for 3 hours after the carrageenin injection, the pain threshold for the inflammed feet was measured, determining the amount of pressure with an analgesy meter.

The nature of data set [3]: Anti-inflammatory activity (carrageenin induced edema test). In kind it is in vivo, male rats of Spargue Dawley strain. Particulars: for % Edema Inhibition, 1 hour / % Edema Inhibition, 3 hours / % Edema Inhibition, 5 hours: oral, 30 min before carrageenin, mg/kg: ASA 100, its ester 173, XAA 120, its ester 186, TAA 60, its ester 88; for % Edema Inhibition, 1 hour: 1 hour after carrageenin; for % Edema Inhibition, 3 hours: 3 hours after carrageenin; for % Edema Inhibition, 5 hours: 5 hours after carrageenin; for anti-inflammatory versus antinociceptive action (in words): conclusion. How it is done:
Anti-inflammatory Activity (Carrageenin induced edema test)
Fifteen to twenty male rats of Spargue Dawley strain weighing 150-200 g, were employed for each compound tested. 0.1 ml of 1% carrageenin saline suspension was injected into the subplantar region of the right hind-paw. The test compounds were orally administered 30 minutes prior to the injection of carrageenin and the foot volume was determined 1,3 and 5 hours after the injection of carrageenin. The percent swelling in the foot was obtained by comparing the volume before and after the injection of carrageenin, and the rate of inhibition in the treated animals was calculated.

Data set [4] can be described thus: Influence on the gastro-intestinal tract (ulceration of the gastric epithelium, Shay et al.). In kind it is in vivo, male rats of Sprague Dawley strain. Here is the method:
Influence on the gastro-intestinal tract
Ten male rats of Sprague Dawley strain, weighing 200-300 g were used for each compound tested. According to the method of Shay et al. (Shay, H., Komapov, S. A., Feb. S. S., Meranir, D., Gruenstein, M. Siplet, H. Gastroenterology 5, 43, 1945), under anesthesia, the pylorus was ligated and 4 hours later test compounds were orally administered. The animal was sacrificed 1 hour after compound administration. The stomach was removed and examined for macroscopic damage. The ulceration of the gastric epithelium was evaluated by the following evaluation: 0=no hemorrhage sites; 1=some isolated hemmorrhagic sites; 2=redness of the gastric epithelium; 3=1 to 5 small ulcers with a diameter smaller than 3 mm; 4=many small ulcers; 5=ulcers--greater than 3 mm; 6=perforated ulcer.

The nature of data set [5]: Analgesic activity, tail pressure test. The data set is classed as in vivo, male mice of Rockland strain. Particulars: oral; control (water) = 0; mg/kg: ASA 100, its ester 173, XAA 50, its ester 77, TAA 50, its ester 73.5. How it is done:
Tail pressure test: Ten male mice of Rockland strain weighing 20-25 g were used for each compound tested. The response threshold on applying pressure to the tail was determined with an analgesy meter at 15 and 60 minutes after oral administration of the test compound. The pressure at which a struggle was elicited was read.

Where [6] appears, read: oral, pylorus ligated, 1 hour after administration, 0=no hemorrhage sites ... 6=perforated ulcer, control 3.0, mg/kg: phenylbutazone 75, ASA 100, its ester 173, XAA 120, its ester 186, TAA 60, its ester 88.
Where [7] appears, read: oral, pylorus ligated, 1 hour after administration, versus control (distilled water) 3.0, doses as for Evaluation.

Regarding `O=C(O)c1cccnc1Nc1cccc(C(F)(F)F)c1` [2 (3'-trifluoromethyl) anilino) pyridine-3-carboxylic acids], the “anti-inflammatory effect (known)” value in data set [1] is on record as “known to have an anti-inflammatory effect”.

Regarding `CC(=O)Oc1ccccc1C(=O)O` [Acetylsalicylic acid (ASA), o-Acetylsalicylic acid], the “analgesic effect (known)” value in data set [1] was “known to have an analgesic effect”. Further, the “Relative strength, Randall-Selitto test” value in data set [2] was 1.05. Moreover, in data set [3], the “% Edema Inhibition, 1 hour” value is listed as 3.8%; the “% Edema Inhibition, 3 hours” value was 24.8%; the “% Edema Inhibition, 5 hours” value was 25.3%. Further, the “Evaluation (ulceration of the gastric epithelium, score 0-6)” value in data set [4] (setting [6]) was 4.1. The “Increase (of ulceration evaluation)” value in data set [4] (setting [7]) was 1.1. Further, the “Relative strength, Tail pressure test” value in data set [5] is listed as 1.00.

In the case of `O=C(O)c1ccccc1Nc1cccc(C(F)(F)F)c1` [N (3'-trifluoromethylphenyl) anthranylic acid], the “anti-inflammatory effect (known)” value in data set [1] is recorded as “known to have an anti-inflammatory effect”. In data set [3], the “% Edema Inhibition, 1 hour” value is given as 24.3%; the “% Edema Inhibition, 3 hours” value is given as 29.3%; the “% Edema Inhibition, 5 hours” value is recorded as 28.3%. In data set [4] (rat, in vivo, po), the “Evaluation (ulceration of the gastric epithelium, score 0-6)” value amounted to 4.9 and the “Increase (of ulceration evaluation)” value amounted to 1.9.

`Cc1cccc(Nc2ccccc2C(=O)O)c1C` [N-(2',3'-xylyl) anthranylic acid (XAA), N (2',3'-dimethylphenyl) anthranylic acid]: in data set [1], the “anti-inflammatory effect (known)” value was “known to have an anti-inflammatory effect”. In addition, the “Evaluation (ulceration of the gastric epithelium, score 0-6)” value in data set [4] (setting [6]) was 4.2. Besides, the “Increase (of ulceration evaluation)” value in data set [4] (setting [7]) amounted to 1.2.

For the compound `CCCCC1C(=O)N(c2ccccc2)N(c2ccccc2)C1=O` [Phenylbutazone], the “Evaluation (ulceration of the gastric epithelium, score 0-6)” value in data set [4] (setting [6]) was 5.5. Moreover, in data set [4] (setting [7]), the “Increase (of ulceration evaluation)” value was found to be 2.5.

In the case of `Cc1cccc(Nc2ccccc2C(=O)OC2OC(=O)c3ccccc32)c1C` (centres unmarked) [Phthalidyl N-(2',3'-xylyl) anthranylate, Phthalydil N(2',3'-xylyl) anthranylate], in data set [3], the “anti-inflammatory versus antinociceptive action (in words)” value is given as “act as anti-inflammatory agents more tha as antinociceptive agents”; the “% Edema Inhibition, 1 hour” value came to 27.4%; the “% Edema Inhibition, 3 hours” value amounted to 34.2%; the “% Edema Inhibition, 5 hours” value was 30.4%. In addition, the “Evaluation (ulceration of the gastric epithelium, score 0-6)” value in data set [4] (setting [6]) was 3.3. Further, the “Increase (of ulceration evaluation)” value in data set [4] (setting [7]) was found to be 0.3.

Regarding `CC(=O)Oc1ccccc1C(=O)OC1OC(=O)c2ccccc21` (centres unmarked) [Phthalidyl acetylsalicylate, Phthalydil o-acetylsalicylate], the “Relative strength, Randall-Selitto test” value in data set [2] was found to be 1.54. Besides, in data set [3], the “% Edema Inhibition, 1 hour” value was 10.2%; the “% Edema Inhibition, 3 hours” value was 30.30%; the “% Edema Inhibition, 5 hours” value is 31.0%. Besides, in data set [4] (setting [6]), the “Evaluation (ulceration of the gastric epithelium, score 0-6)” value was determined as 3.0. Further, in data set [5], the “Relative strength, Tail pressure test” value is given as 1.82.

Consider `O=C(OC1OC(=O)c2ccccc21)c1ccccc1Nc1cccc(C(F)(F)F)c1` (centres unmarked) [Phthalydil N(3'-trifluoromethylphenyl) anthranylate], for which, in data set [3], the “anti-inflammatory versus antinociceptive action (in words)” value was “act as anti-inflammatory agents more tha as antinociceptive agents”; the “% Edema Inhibition, 1 hour” value is given as 35.4%; the “% Edema Inhibition, 3 hours” value is 40.2%; the “% Edema Inhibition, 5 hours” value is listed as 37.4%. Further, in data set [4] (setting [6]), the “Evaluation (ulceration of the gastric epithelium, score 0-6)” value turned out to be 3.5. The “Increase (of ulceration evaluation)” value in data set [4] (setting [7]) was determined as 0.5.
